How the values were obtained:
rats subjected to SNL [1] = experiment: Spinal nerve ligation (SNL) L5 model, mechanical allodynia (digital Von Frey); type: in vivo, rat; settings: for paw withdrawal threshold, mechanical allodynia: after 3 days of treatment, 32.25 μmol/kg ip, p<0.05; for reversal of allodynia signs associated with neuropathic pain: ip during 7 days, 32.25 μmol/kg
Experimental: This experimental model was proposed by Kim and Chung [Kim, S. H.; Chung, J. M. Pain 1992, 50: 355-363] and consists of ligation of spinal nerves. Male Wistar rats, 180-220 g, were anesthetized with a mixture of ketamine and xylazine (60 mg/kg and 5 mg/kg, respectively) intraperitoneally. After the dorsal region asepsy, an incision was made between L5 and S1. The L6 transverse process was removed for locating the nerves L4 and L5, which were carefully isolated, and tight ligation of the L5 nerve with 6.0 silk thread was made, interrupting flow of the axon of the nerve. After this procedure, para-spinal muscles and skin were sutured, and then a topical antiseptic was applied. False operated animals (sham) were subjected to the same procedure, however the spinal nerve was not ligated.
To evaluate the development of mechanical allodynia, digital analgesimeter (Model EFF301; Insight Equipments), digitalized version coupled to a pointed filament (Von Frey model variant) was used. This test aims to assess changes in tactile sensitivity in response to a mechanical stimulus as a result of a neural damage. The device consisted of a hand-held force transducer fitted with a sensor tip, through which a pressure with increasing strength is applied against the footpad of the animals hindpaw to assess the threshold of paw withdrawal, that is, the digital analgesimeter records the maximal strength, in grams (g), in which the animal withstands until the paw withdrawal reflex.
Animals were placed in individual acrylic boxes and let to acclimate for 30 min before the beginning of the test. After this period, the thresholds of hindpaw withdrawal were determinded. For each hindpaw, five records of the withdrawal thresholds were made, and the average for each hindpaw was defined as the paw withdrawal threshold control.
The treatment started on the 7th day after surgery. Compounds were diluted in water or DMSO and administered through intraperitoneal route on daily basis, during 7 days, at a dose of […]. The effectiveness of tested compounds was assessed on days 1, 3, and 7 days after treatment, always before the next administration of the compound. Latencies were also assessed on days 1, 3, and 7 after treatment interruption.
Differences were considered significant when p<0.05.

Swiss-type male mice = experiment: RotaRod performance test, motor coordination; settings: for animal residence time on the rotational cylinder compared to controls: 15 minutes after administration; for Mice residence time on the rotational cylinder: 9 rpm, cut off 180 s, mean ± SEM
Experimental: The assessment of motor coordination in mice, by the rotarod performance test, was carried out to detect any possible sedative or muscle relaxant effect caused by the compounds of the present invention, previously tested in acute and neuropathic pain models. This test was carried out according to the method of described by Dunham & Miya and animal motor coordination was evaluated using RotaRod apparatus [Dunham M. S. & Miya. R. T. (1957). J. Amer. Pharmac. Assoc. Sci. Edit. 1957, 46, 208-209].
The RotaRod apparatus (Model 412 EFF, Insight Equipements, Brazil) is a device that measures motor coordination and thus evaluates balance alterations in mice. The apparatus consists of an acrylic box splited into four compartments with a rotational cylinder among them. The cylinder rotates at constant speed driven by a motor and regulated to the constant speed mode of 5-37 revolutions per minute (rpm). In this study the speed was set up to 9 rpm.
To remain on the rotational cylinder, the animal needs to move around, so that the motor coordination can be quantified. The four compartments have drop detection system, through the impact, a microprocessor circuit, for timing the permanence of the animal at the compartment, and for counting the number of falls.
The day before the test, Swiss-type male mice (19-25 g) were placed on the rotational cylinder, set up to the constant speed mode of 9 rpm for adaptation and learning. A group of 10 mice were used for each tested compound, and the total period spent on the rotational cylinder (in seconds) was recorded for a period of 180 seconds (cut off time) and it was accept a maximum of three falls for each animal. Motor coordination was assessed at times 0 (before treatment), 15, 30, 60 and 120 minutes after compounds administration at a dose of 32.25 μmol/kg.
All compounds were administered intraperitoneally (ip).
The Student's t-test was also used to compare means between two experimental groups. Differences were considered significant when p<0.05.

rats subjected to SNL [2] = experiment: Spinal nerve ligation (SNL) L5 model, thermal hyperalgesia; type: in vivo, rat
rats subjected to SNL [3] = experiment: Spinal nerve ligation (SNL) L5 model, mechanical allodynia (digital Von Frey); type: in vivo, rat; settings: after the first day of treatment, p<0.05
[4] = T 15 min after ip administration, 32.25 μmol/kg
[5] = T 30 min after ip administration, 32.25 μmol/kg (diazepam 2 mg/kg)
[6] = T 60 min after ip administration, 32.25 μmol/kg (diazepam 2 mg/kg)
[7] = T 120 min after ip administration, 32.25 μmol/kg (diazepam 2 mg/kg)

In the case of `CN1CCN(CCc2c[nH]nc2-c2ccc(F)cc2)CC1.Cl.Cl.Cl.O.O` [C11, 1-{2-[3-(4-fluorophenyl)-1H-pyrazol-4-yl]ethyl}-4-methylpiperazine trihydrochloride dihydrate], the “paw withdrawal threshold, mechanical allodynia” value (rats subjected to SNL [1]) is reported as “significant (p<0.05) paw withdrawal threshold”, the “reversal of allodynia signs associated with neuropathic pain” value (“reversal of allodynia signs associated” below) (rats subjected to SNL [1]) is reported as “effective in reverse the hyperalgesia and allodynia signs” and the “animal residence time on the rotational cylinder compared to controls” value (shortened to “animal residence time … compared to controls”) (Swiss-type male mice; 32.25 μmol/kg) is reported as “equal to the time observed for the negative control, and significantly higher than the time observed for the control amitriptyline hydrochloride”. For the same compound, the “Mice residence time on the rotational cylinder” value (from here on “Mice residence time”) (Swiss-type male mice; [4]) was 180.0 s, the “Mice residence time” value (Swiss-type male mice; [5]) was 177.0 s and the “Mice residence time” value (Swiss-type male mice; [6]) was 178.5 s. For the same compound, the “Mice residence time” value (Swiss-type male mice; [7]) was 176.7 s.

With `Cl.Cl.Fc1ccc(-c2n[nH]cc2CCN2CCOCC2)cc1.O` [C9, 4-{2-[3-(4-fluorophenyl)-1H-pyrazol-4-yl]ethyl}morpholine dihydrochloride monohydrate] the “reversal of allodynia signs associated” value (rats subjected to SNL [1]) was “effective in reverse the hyperalgesia and allodynia signs”, the “animal residence time … compared to controls” value (Swiss-type male mice; 32.25 μmol/kg) was “equal to the time observed for the negative control, and significantly higher than the time observed for the control amitriptyline hydrochloride” and the “Mice residence time” value (Swiss-type male mice; [4]) was 180.0 s. The “Mice residence time” value (Swiss-type male mice; [5]) was 180.0 s, the “Mice residence time” value (Swiss-type male mice; [6]) was 180.0 s and the “Mice residence time” value (Swiss-type male mice; [7]) was 175.3 s.

With `Cl.Cl.Fc1ccc(-c2n[nH]cc2CCN2CCCCC2)cc1.O` [C3, 1-{2-[3-(4-fluorophenyl)-1H-pyrazol-4-yl]ethyl}piperidine dihydrochloride monohydrate] the “paw withdrawal threshold, mechanical allodynia” value (rats subjected to SNL [1]) was “significant (p<0.05) paw withdrawal threshold”, the “analgesic effect on mechanical allodynia after treatment interruption” value (rats subjected to SNL [1]; after 7 days of 32.25 μmol/kg ip) was “analgesic effect is maintained until the first day after treatment interruption” and the “animal residence time … compared to controls” value (Swiss-type male mice; 32.25 μmol/kg) was “equal to the time observed for the negative control, and significantly higher than the time observed for the control amitriptyline hydrochloride”. For the same compound, the “Mice residence time” value (Swiss-type male mice; [4]) was 180.0 s, the “Mice residence time” value (Swiss-type male mice; [5]) was 178.2 s and the “Mice residence time” value (Swiss-type male mice; [6]) was 178.7 s. The “Mice residence time” value (Swiss-type male mice; [7]) was 180.0 s, the “paw withdrawal latency, thermal hyperalgesia” value (rats subjected to SNL [2]; oral 30 mg/kg, after 7 days of treatment) was “significantly increased the paw withdrawal latency” and the “paw withdrawal latency, thermal hyperalgesia” value (rats subjected to SNL [2]; oral 100 mg/kg, after 1 day of treatment) was “significantly increased the paw withdrawal latency”. For the same compound, the “reversion of the signs of mechanical allodynia” value (rats subjected to SNL [3]; oral 30 mg/kg) was “reversion of the signs of mechanical allodynia” and the “reversion of the signs of mechanical allodynia” value (rats subjected to SNL [3]; oral 100 mg/kg) was “reversion of the signs of mechanical allodynia”.

With `CCOC(=O)C1(c2ccccc2)CCN(CCc2conc2-c2ccc(F)cc2)CC1.Cl` [C17, Ethyl 1-{2-[3-(4-fluorophenyl)-1,2-oxazol-4-yl]ethyl}-4-phenylpiperidine-4-carboxylate hydrochloride] the “reversal of allodynia signs associated” value (rats subjected to SNL [1]) was “effective in reverse the hyperalgesia and allodynia signs”, the “Mice residence time” value (Swiss-type male mice; [4]) was 127.4 s and the “Mice residence time” value (Swiss-type male mice; [5]) was 153.3 s. For the same compound, the “Mice residence time” value (Swiss-type male mice; [6]) was 163.2 s and the “Mice residence time” value (Swiss-type male mice; [7]) was 175.6 s.

With `Cl.OC1(c2ccc(Cl)cc2)CCN(CCc2conc2-c2ccc(F)cc2)CC1` [C15, 4-(4-chlorophenyl)-1-{2-[3-(4-fluorophenyl)-1,2-oxazol-4-yl]ethyl}piperidin-4-ol hydrochloride] the “reversal of allodynia signs associated” value (rats subjected to SNL [1]) was “effective in reverse the hyperalgesia and allodynia signs”, the “animal residence time … compared to controls” value (Swiss-type male mice; 32.25 μmol/kg) was “equal to the time observed for the negative control, and significantly higher than the time observed for the control amitriptyline hydrochloride” and the “Mice residence time” value (Swiss-type male mice; [4]) was 180.0 s. For the same compound, the “Mice residence time” value (Swiss-type male mice; [5]) was 179.0 s, the “Mice residence time” value (Swiss-type male mice; [6]) was 179.2 s and the “Mice residence time” value (Swiss-type male mice; [7]) was 180.0 s. For the same compound, the melting point was 222 to 226 °C (dec.).

Reference: patent publication US20150266864A1, “HETEROAROMATIC COMPOUNDS, METHOD FOR PREPARING THE COMPOUNDS, PHARMACEUTICAL COMPOSITIONS, USES AND METHOD FOR TREATING ACUTE AND CHRONIC PAIN” (CRISTÁLIA PRODUTOS QUÍMICOS FARMACÊUTICOS LTDA, priority 2012, published 2015)
